One series deals with human tumour cell lines. Description: selectivity of cytotoxicity over all cell lines evaluated (Tables 1 and 2). It is filed as cell-based. The source says:
The origins of the human melanoma cell line MM96 has been described in Whitehead et al., 1973, Pigment Cell 1 383-389. The cell line JAM is described in Ward et al., 1987, Cancer Res. 47 2662-2667. The origin of the ovarian tumour line CI-80-13S has been described in Bertoncello et al., 1985, Aust. J. Exp. Biol. Med. Sci. 63 241-243. The origin of the cervical carcinoma cell line HeLa has been described in Maynard et al., 1986, Cancer Res. 46 5009-5093. The subclone HeLa-S1a was derived by stably transfecting HeLa with PAI-2 cDNA described in Schleuning et al., 1987, Mol. Cell. Biol. 7 4564-4567 in the sense orientation under the control of the cyto-megalovirus (CMV) promoter. The stably infected subclone was isolated following G418 selection and expression of the PAI-2 transgene characterised by immunoblot analysis and quantitated by ELISA. All of these cell lines have been used before for carrying out cell survival assays referred to in FIGS. 1-4. Cells were cultured at 37° in 5% CO2 /air in Roswell Park Memorial Institute medium 1640 containing 5% foetal calf serum, 100 μg/ml streptomycin, 100 IU/ml penicillin, 1 mM pyruvate, 50 μM nicotinamide and 3 mM HEPES.
Cells were seeded in microtitre plates (lowest number for fastest growing cells: 1000 HeLa, 2000 MM96, […] CI-80-13S cells per 6 mm well in 100 μl), normally but not necessarily allowed to attach overnight, then 5 dilutions of the drug were added to duplicate wells. After an overnight incubation to equilibrate the pH, the lids were quickly taped around the edge to prevent evaporation. The plates were incubated for 5-7 days, until the controls were nearly confluent. Cell growth/morphology was scored at each dose visually (inverted microscope). The medium was then replaced by 50 μl fresh medium containing 2 u/Ci/ml [methyl-3H]-thymidine (5 Ci/mmol; Radiochemical Centre, Amersham, Bucks., U.K.) and incubated for 2-4 hr. The cells were washed with PBS (0.1 M NaCl, 50 mM phosphate, pH 7.2), detached with 100 μl of PBS containing 0.2 mg/ml trypsin and 10 mM EDTA, and washed onto a glass fibre GF/a filter mat with water using a cell harvester. Later, wells were checked under the microscope to ensure complete detachment and washout. Radioactivity was determined in an LKB Beta Plate counter and the results plotted as log % control cpm versus dose. The ID50 (dose required to give 50% survival) was interpolated from this survival curve.
The sensitive CH1 cell line was established from a patient with drug-sensitive disease and its resistant variant (CH1-cisR) was generated by prolonged in vitro exposure to cisplatin during which it acquired more efficient DNA repair as described in Kelland et al., 1992, Cancer Research 52 3857-3864. The sensitive 41M cell line was also established from a patient with a sensitive tumor and its resistant variant (41M-cisR) was generated in the same way but acquired decreased uptake across the cell membrane (Kelland et al., 1992, supra). The intrinsically-resistant SKOV-3 ovarian carcinoma cell line has high glutathione levels as described in Mistry et al., 1991, Brit. J. Cancer 64 215-220 and reduced levels of bi-functional cisplatin-DNA lesions as described in McKeage et al., 1994, Brit. J. Cancer 69 1-7. The characteristics of the cell line pairs CH1/CH1 cisR, 41M/41McisR and 41M/SKOV3 are described in Table 3.
The cytotoxicity assay used sulforhodamine B which stains the basic amino acids. Cells (5000 or 2500 for SKOV-3) were seeded into 96 well microtitre plates (Linbro, Flow Laboratories Inc., USA) in 0.1 ml of medium. After an overnight incubation, the metal phosphine compounds were dissolved in 0.9% NaCl or ethanol and diluted with medium, were added at concentrations ranging from 0.005 to 50 μM to quadruplicate wells. After 96 hrs incubation, the medium was removed and cells were fixed in 0.2 ml of cold 10% (w/v) trichloroacetic acid (May & Baker Ltd., Dagenham, England) for 30 mins at 4° C. The plates were washed five times with tap water. […]

In series [1] the test system is M5076 Reticulum Cell Sarcoma. The conditions noted are these: Berners-Price et al. 1990; cited from earlier work.
A further series deals with SKOV-3. Description: cytotoxicity assay, sulforhodamine B. It is filed as cell-based, human. The conditions noted are these: 96 hrs, mean ± SD or individual values when n<3. The procedure: (§1) In Table 2, reference is made to cell lines 41M, 41M-cisR, SKOV-3, CH1 and CH1-cisR.
(§2) J. Cancer 69 1-7. The characteristics of the cell line pairs CH1/CH1 cisR, 41M/41McisR and 41M/SKOV3 are described in Table 3.
(§3) The cytotoxicity assay used sulforhodamine B which stains the basic amino acids. Cells (5000 or 2500 for SKOV-3) were seeded into 96 well microtitre plates (Linbro, Flow Laboratories Inc., USA) in 0.1 ml of medium. After an overnight incubation, the metal phosphine compounds were dissolved in 0.9% NaCl or ethanol and diluted with medium, were added at concentrations ranging from 0.005 to 50 μM to quadruplicate wells. After 96 hrs incubation, the medium was removed and cells were fixed in 0.2 ml of cold 10% (w/v) trichloroacetic acid (May & Baker Ltd., Dagenham, England) for 30 mins at 4° C. The plates were washed five times with tap water. Then 0.1 ml of 0.4% (w/v) sulforhodamine B (Sigma Chemical Co., St. Louis, USA) dissolved in 1% acetic acid (Ajax Chemicals, Australia) was added to the wells and left to stand at room temperature for 15 mins. The plates were then washed five times with 1% acetic acid and left to dry overnight. The next morning, 0.1 ml of 10 mM Tris buffer (Sigma Chemical Co., St. Louis, USA) was then added to each plate to solubilise the dye. Absorbance was read at a wavelength of 570 nm using a 96 well plate reader Dynatech MR 5000 plate reader. Absorbance of treatment cells was expressed as a percentage of positive (drug-free) controls. The results were plotted as percentage growth versus drug concentration.

For a further series, the system named is 41M. Nature of the series: cytotoxicity assay, sulforhodamine B. It is filed as cell-based, human. The conditions noted are these: 96 hrs, mean ± SD or individual values when n<3. How it is done:
as §1, §2, §3

A further series has as its system CH1-cisR. Nature of the series: cytotoxicity assay, sulforhodamine B. Format: cell-based, human. The conditions noted are these: 96 hrs, mean ± SD or individual values when n<3. How it is done:
as §1, §2, §3

The subject of another series is CH1. Description: cytotoxicity assay, sulforhodamine B. Format: cell-based, human. The conditions noted are these: 96 hrs, mean ± SD or individual values when n<3. The procedure: as §1, §2, §3
The subject of the next series is 41M-cisR. Description: cytotoxicity assay, sulforhodamine B. It is filed as cell-based, human. The conditions noted are these: 96 hrs, mean ± SD or individual values when n<3. How it is done:
as §1, §2, §3

Consider `[Cl-].c1cc([P+]2(c3ccncc3)CC[P+](c3ccncc3)(c3ccncc3)[Au-3]23[P+](c2ccncc2)(c2ccncc2)CC[P+]3(c2ccncc2)c2ccncc2)ccn1` [[Au(d4pype)2]Cl], for which, in the series on human tumour cell lines, the “number of cell lines against which cytotoxic” value is given as “cytotoxic to only four of the nine cell-lines tested”. Moreover, the degree of selectivity entry with human tumour cell lines (Tables 1 and 2) is “the greatest selectivity”. For the same compound, the activity in mice entry in series [1] was “inactive”. Further, the IC50 (as a rule, the concentration that inhibits the measured activity by half) in the series on SKOV-3 is > 100 µM; with 41M, > 100 µM; in the series with CH1-cisR, 0.6 ± 0.2 µM; in the series with CH1, 0.4 ± 0.1 µM; in the series on 41M-cisR, > 100 µM.

Source of the values: patent publication US6218378A, “Anti-tumor agents comprising pyridyl-substituted metal-diphosphine complex” (priority 1994, dated 2001).
